Tests used:
Plasmodium falciparum [1] = test: Antiplasmodial activity against chloroquine-sensitive Plasmodium falciparum 3D7 infected in type B+ human erythrocytes assessed as inhibition of sorbitol-induced hemolysis at 10 mM after 15 min by spectrophotometry; type: functional; parameters: scale not given: the % may be the effect or the level left
Plasmodium falciparum [2] = test: Antiplasmodial activity against chloroquine-sensitive Plasmodium falciparum 3D7 infected in type B+ human erythrocytes assessed as inhibition of trophozoite stage parasite after 18 hrs followed by incubation in drug-free medium for 48 hrs by stage specific inhibition assay relative to control; type: functional
Plasmodium falciparum [3] = test: Antiplasmodial activity against chloroquine-sensitive Plasmodium falciparum 3D7 infected in type B+ human erythrocytes assessed as reduction of hemozoin formation at IC50 after 48 hrs relative to control; type: functional; parameters: scale not given: the % may be the effect or the level left
Plasmodium falciparum [4] = test: Antiplasmodial activity against chloroquine-sensitive Plasmodium falciparum 3D7 infected in type B+ human erythrocytes assessed as inhibition of schizont stage parasite after 12 hrs followed by incubation in drug-free medium for 48 hrs by stage specific inhibition assay relative to control; type: functional
Plasmodium falciparum [5] = test: Antiplasmodial activity against chloroquine-sensitive Plasmodium falciparum 3D7 infected in type B+ human erythrocytes assessed as inhibition of ring stage parasite after 18 hrs followed by incubation in drug-free medium for 48 hrs by stage specific inhibition assay relative to control; type: functional
Plasmodium falciparum [6] = test: Antiplasmodial activity against chloroquine-sensitive Plasmodium falciparum 3D7 infected in type B+ human erythrocytes assessed as inhibition of sorbitol-induced hemolysis at 10 nM after 15 min by spectrophotometry; type: functional; parameters: scale not given: the % may be the effect or the level left
Plasmodium falciparum [7] = test: Antiplasmodial activity against chloroquine-sensitive Plasmodium falciparum 3D7 infected in type B+ human erythrocytes assessed as inhibition of sorbitol-induced hemolysis at 5 nM after 15 min by spectrophotometry; type: functional; parameters: scale not given: the % may be the effect or the level left
Plasmodium falciparum [8] = test: Antiplasmodial activity against chloroquine-sensitive Plasmodium falciparum 3D7 infected in type B+ human erythrocytes assessed as inhibition of parasitemia after 48 hrs by Giemsa staining; type: functional, organism-based; settings: 3D7, 48 h
Plasmodium falciparum [9] = test: Antiplasmodial activity against chloroquine-sensitive Plasmodium falciparum 3D7 infected in type B+ human erythrocytes assessed as inhibition of sorbitol-induced hemolysis at 10 uM after 15 min by spectrophotometry; type: functional; parameters: scale not given: the % may be the effect or the level left

In the case of `O=C(/C=C/c1ccc(Cl)cc1)c1ccc(-n2cccc2)cc1`, the Activity (Plasmodium falciparum [1]) is reported as 85.9%, the “inhibition (INH)” value (Plasmodium falciparum [2]) is reported as 61.5% and the Activity (Plasmodium falciparum [3]) is reported as 48.8%. The “inhibition (INH)” value (Plasmodium falciparum [4]) was 48.9% and the “inhibition (INH)” value (Plasmodium falciparum [5]) was 51.4%.
In the case of `CCc1nc(N)nc(N)c1-c1ccc(Cl)cc1` [PYRIMETHAMINE], the Activity (Plasmodium falciparum [3]) is reported as 56.3% and the Activity (Plasmodium falciparum [6]) is reported as 92.2%.
`O=C(/C=C/c1ccc(Cl)cc1)c1ccc(-n2nnc3ccccc32)cc1` was tested, and the Activity (Plasmodium falciparum [1]) was 90%, the “inhibition (INH)” value (Plasmodium falciparum [2]) was 70.9% and the Activity (Plasmodium falciparum [3]) was 47.7%. For the same compound, the “inhibition (INH)” value (Plasmodium falciparum [4]) was 41% and the “inhibition (INH)” value (Plasmodium falciparum [5]) was 47.9%.
`O=C(/C=C/c1ccc(Cl)cc1)c1ccc(-n2cncn2)cc1` was tested, and the Activity (Plasmodium falciparum [1]) was 36.1%, the “inhibition (INH)” value (Plasmodium falciparum [2]) was 65.8% and the Activity (Plasmodium falciparum [3]) was 47.8%. The “inhibition (INH)” value (Plasmodium falciparum [4]) was 40.1% and the “inhibition (INH)” value (Plasmodium falciparum [5]) was 48.7%.
In the case of `C[C@@H]1CC[C@H]2[C@@H](C)C(=O)O[C@@H]3O[C@@]4(C)CC[C@@H]1[C@]32OO4` [ARTEMISININ], the Activity (Plasmodium falciparum [7]) is reported as 90.9%, the Activity (Plasmodium falciparum [3]) is reported as 48.3% and the IC50 (Plasmodium falciparum [8]) is reported as 4 nM.
`NS(=O)(=O)c1cc(C(=O)O)c(NCc2ccco2)cc1Cl` [FUROSEMIDE] was tested, and the Activity (Plasmodium falciparum [9]) was 56.3%.
`C=CC(C)(C)c1cc(/C=C/C(=O)c2ccc(O)cc2)c(OC)cc1O` [LICOAGROCHACONE A] was tested, and the IC50 (Plasmodium falciparum [8]) was 4.2 nM.
